# Molecular target: Recombinant human ATX (Homo sapiens (Human), UniProt Q13822)
# Assay: Assessing ATX inhibition (choline release, Amplex Red fluorescence)
# Type: biochemical
# Settings: ATX 10 nM, LPC 18:1 10 μM, pre-incubated at 37° C. for 20 minutes; mean of n≥2
# Protocol: Reagents—LPC (oleoyl (18:1)) was purchased from Avanti Polar Lipids (Alabaster, Ala.) and solubilized in methanol to 20 mM. Amplex Red was obtained from Invitrogen Life Technologies (Paisley, UK) and dissolved in DMSO to 10 mM. Choline oxidase and horseradish peroxidase (HRP) were obtained from Sigma Aldrich (Dorset, UK) and dissolved in HBSS to 20 U/ml and 200 U/ml respectively. All reagents were stored at −20° C. in single use aliquots. All experimental measurements were performed in assay buffer made up immediately prior to use (HBSS, 0.01% BSA essentially fatty acid free).
# Protein—Recombinant human ATX was prepared at Novartis (Basel, CH) in a human embryonic kidney (HEK) cell preparation, and stored in single use aliquots of […] (26 μM) stocks stored at −80° C.
# Method—All experimental measurements should be performed in black 384 well polystyrene (low volume, round bottom, Corning (3676)) plates. PerkinElmer EnVision (Fluorescence Intensity/Absorbance Monochromator) or Tecan Infinite 200 PRO series plate reader was used to detect change in fluorescent intensity.
# Assessing ATX inhibition—ATX activity was determined by measurement of released choline in reactions containing ATX (10 nM), choline oxidase (0.1 U/ml), HRP (100 U/ml), amplex red (50 μM) and LPC 18:1 (10 μM). Compounds of the invention should be prepared as 10 point serial dilutions from 1 μM in duplicate and pre-incubated with ATX at 37° C. for 20 minutes prior to the addition of remaining reagents. The liberated choline was measured from changes in fluorescence intensity (λex 530 nm, λm 590 nm) of the product resurofin at 37° C. every 2 minutes over a 40-minute period. ATX activity was measured as a slope of the linear portion of the progress curve, typically between 14 to 24 minutes.
# Data analysis—Slope data was exported to Graphpad prism (Graphpad software, San Diego, Calif.) where data was fitted to equation 1. Y=Bottom+(Top−Bottom)/(1+10^((Log IC50−X)*HillSlope)) Equation 1
# IC50 values were determined from the concentration of compound that reduced the total activity by 50% and represent the mean of n≥2.
row,Structure (SMILES),IC50 [nM]
1,Cc1nnn(Cc2cc(C(F)(F)F)ccc2/C=C/C(=O)N2CCN(Cc3ccc(OCCF)cn3)C[C@H]2C)n1,3
2,COc1cc(CN2CCN(C(=O)/C=C/c3ccc(Cl)cc3Cn3nnc(C)n3)CC2)ccn1,13
3,Cc1nnn(Cc2cc(Cl)ccc2/C=C/C(=O)N2CCN(Cc3ccc(OCCF)cn3)C[C@H]2C)n1,4
4,Cc1nnn(Cc2cc(Cl)ccc2/C=C/C(=O)N2CCN(Cc3ccc(OCCOCCF)cn3)C[C@H]2C)n1,5
5,Cc1nnn(Cc2cc(C(F)(F)F)ccc2/C=C/C(=O)N2CCN(Cc3ccc(OCCOCCF)cn3)C[C@H]2C)n1,6
6,Cc1nnn(Cc2cc(C(F)(F)F)ccc2/C=C/C(=O)N2CCN(Cc3coc(CF)n3)C[C@H]2C)n1,1.4
7,Cc1nnn(Cc2cc(C(F)(F)F)ccc2CCC(=O)N2CCN(Cc3ccc(OCCF)cn3)C[C@H]2C)n1,2
